Assay results reported in US11311540B2, “Increasing expression of interferon regulated genes with combinations of histone deacetylase inhibitors and immunomodulatory drugs” (ACETYLON PHARMACEUTICALS, INC., priority 2016, dated 2022).

How the values were obtained:
[1] = system: BIRC5; experiment: BIRC5 (survivin) gene expression (microarray probes); format: cell-based, human; settings: Compound A 2, 3, 4 μM, pomalidomide 1 μM; 24 and 48 hours
Experimental: (§1) The chip comprises a human gene expression array having more than 530,000 probes covering more than 36,000 transcripts and variants, which represent more than 20,000 genes mapped through RefSeq or via UniGene annotation. […] In the table, “A” indicates Compound A, and “Pom” indicates pomalidomide.
(§2) Finally, both effects were enhanced with time, though dose-dependence was less clear at 48 hours.

[2] = system: myc target genes; experiment: Gene Set Enrichment Analysis (GSEA) of microarray data; format: cell-based, human; settings: single agent vs. DMSO at 48 hours (pomalidomide 1 μM; Compound A 4 μM)
Experimental: (§3) The data acquired from Example 7 was analyzed using two approaches: (1) Gene Set Enrichment Analysis (GSEA), and in the (2) Library of Integrated Network-based Cellular Signatures (LINCS) database.
(§4) The goal of the GSEA was to identify gene sets that are enriched in combination treatment over single agent treatment. […] Relevant gene sets were those that were enriched in both queries in the same direction (increased or decreased). For this analysis, the “hallmark gene sets” was chosen as the database, which comprises coherently expressed signatures derived by aggregating many molecular signatures database (MSigDB) gene sets to represent well-defined biological states or processes.

[3] = system: interferon regulated genes; experiment: as above; format: cell-based, human; settings: single agent vs. DMSO at 48 hours (pomalidomide 1 μM; Compound A 4 μM)
Experimental: as §3, §4

[4] = system: CCL4; experiment: CCL4 gene expression (microarray probes); format: cell-based, human; settings: Compound A 2, 3, 4 μM, pomalidomide 1 μM; 24 hour and 48 hour
Description: as §1
(§5) Each bar in each group of bars per treatment represents individual transcript probes for measuring gene expression level. […] Finally, there also appeared to be independent time components for each transcript.

[5] = system: XAF1; experiment: XAF1 gene expression (microarray probes); format: cell-based, human; settings: Compound A 2, 3, 4 μM, pomalidomide 1 μM; 24 hour and 48 hour
Description: as §1, §5

[6] = Body weight and tolerability in CB17-SCID mice; format: in vivo
Experimental: Mice carrying H929 tumor xenografts were treated with DMSO, Compound B (50 mg/kg IP QD), pomalidomide (1 mg/kg IP QD), or the combination of Compound B (50 mg/kg IP QD) and pomalidomide (1 mg/kg IP QD) daily for up to 42 days.

[7] = system: CASP1; experiment: CASP1 gene expression (microarray probes); format: cell-based, human; settings: Compound A 2, 3, 4 μM, pomalidomide 1 μM; 24 and 48 hours
Experimental: as §1, §2

[8] = system: H929; experiment: Expression profiling with Affymetrix […] microarrays, number of differentially regulated genes; format: cell-based, human; settings: pomalidomide 1 μM
Description: as §1

[9] = target: T1, HDAC6 (Homo sapiens, UniProt Q9UBN7); experiment: HDAC6 selectivity over other HDACs; format: biochemical
T1 sequence (Q9UBN7 1-1215): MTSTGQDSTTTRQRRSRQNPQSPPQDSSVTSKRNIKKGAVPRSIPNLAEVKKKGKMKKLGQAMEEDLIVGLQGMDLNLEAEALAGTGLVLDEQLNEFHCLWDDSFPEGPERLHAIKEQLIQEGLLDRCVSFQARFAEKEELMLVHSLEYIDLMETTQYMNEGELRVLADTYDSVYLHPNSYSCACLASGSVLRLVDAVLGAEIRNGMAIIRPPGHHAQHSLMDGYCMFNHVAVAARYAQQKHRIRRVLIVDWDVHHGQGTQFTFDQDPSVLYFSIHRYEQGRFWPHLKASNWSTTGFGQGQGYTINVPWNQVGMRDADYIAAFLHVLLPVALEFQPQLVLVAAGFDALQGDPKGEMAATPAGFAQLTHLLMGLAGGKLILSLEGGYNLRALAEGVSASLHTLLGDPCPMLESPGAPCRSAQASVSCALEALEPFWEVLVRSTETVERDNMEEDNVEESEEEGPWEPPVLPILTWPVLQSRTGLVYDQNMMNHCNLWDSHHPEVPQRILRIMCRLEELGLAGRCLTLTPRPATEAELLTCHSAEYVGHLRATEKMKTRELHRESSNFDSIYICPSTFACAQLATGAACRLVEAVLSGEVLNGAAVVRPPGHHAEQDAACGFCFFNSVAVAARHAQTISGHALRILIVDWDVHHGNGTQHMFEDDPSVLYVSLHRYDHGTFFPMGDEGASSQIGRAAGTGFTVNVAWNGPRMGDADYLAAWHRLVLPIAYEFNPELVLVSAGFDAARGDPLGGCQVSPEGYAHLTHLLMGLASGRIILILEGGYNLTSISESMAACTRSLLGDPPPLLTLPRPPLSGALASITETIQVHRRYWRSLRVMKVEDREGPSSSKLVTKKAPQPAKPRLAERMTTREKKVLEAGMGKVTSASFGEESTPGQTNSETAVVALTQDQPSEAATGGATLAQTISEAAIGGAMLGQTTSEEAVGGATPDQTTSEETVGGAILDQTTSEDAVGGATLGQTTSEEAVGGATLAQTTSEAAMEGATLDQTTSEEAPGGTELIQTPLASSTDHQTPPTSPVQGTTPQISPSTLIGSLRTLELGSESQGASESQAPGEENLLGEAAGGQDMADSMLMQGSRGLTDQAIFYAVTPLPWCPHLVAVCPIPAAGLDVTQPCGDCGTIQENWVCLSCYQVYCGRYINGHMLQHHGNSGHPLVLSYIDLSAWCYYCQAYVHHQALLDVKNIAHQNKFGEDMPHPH
Description: The synthesis of the compounds of Formula I is provided in PCT/US2011/021982, which is incorporated herein by reference in its entirety. The synthesis of compounds of Formula II is provided in PCT/US2011/060791, which is incorporated herein by reference in its entirety. The synthesis of the compounds of Formula III is provided in U.S. Pat. Nos. 5,635,517; 6,281,230; 6,335,349; and 6,476,052; and in International Patent Application No. PCT/US97/013375, each of which is incorporated herein by reference in its entirety.

[10] = system: H929 cells; experiment: Apoptosis by flow cytometry (Annexin V / propidium iodide); format: cell-based; settings: 5 and 7 days, Compound A 2 μM, lenalidomide 2 μM, pomalidomide 1 μM
Experimental: Flow cytometry analysis was then used to measure the number of healthy and apoptotic cells under each treatment condition.
(§6) H929 (FIGS. 7A & 7B) or MM.1s (FIGS. 7C & 7D) myeloma cells were exposed to drug for 5 (FIGS. 7A & 7C) and 7 (FIGS. 7B & 7D) days, and apoptosis was assessed by flow cytometry by measuring Annexin V binding and cellular permeability to propidium iodide. The relative fraction of cells that were live, in early apoptosis, in late apoptosis, or dead was then determined.

[11] = Phase I trials; cited from earlier work
[12] = system: preclinical models of MM; settings: in vitro and in vivo; cited from earlier work
[13] = system: MM.1s myeloma cells; experiment: Cell cycle distribution by flow cytometry (propidium iodide); format: cell-based; settings: 3 and 5 days, Compound A 2 μM, lenalidomide 2 μM, pomalidomide 1 μM
Experimental: (§7) H929 (FIGS. 6A & 6B) or MM.1s (FIGS. 6C & 6D) myeloma cells were exposed to drug for 3 (FIGS. 6A & 6C) and 5 (FIGS. 6B & 6D) days and cell cycle distribution was assessed by flow cytometry via incorporation of propidium iodide. The relative fraction of cells in each stage of the cell cycle (G0/G1, S, and G2/M) as well as the fraction of dead cells (Sub G1) was then estimated.

[14] = system: H929 myeloma cells; experiment: as above; format: cell-based; settings: 3 and 5 days, Compound A 2 μM, lenalidomide 2 μM, pomalidomide 1 μM
Experimental: as §7

[15] = system: α-tubulin; experiment: Acetylation of α-tubulin in H929 cells (immunoblot); format: cell-based
[16] = system: MM.1s myeloma cells; experiment: Apoptosis by flow cytometry (Annexin V / propidium iodide); format: cell-based; settings: 5 and 7 days, Compound A 2 μM, lenalidomide 2 μM, pomalidomide 1 μM
Experimental: as §6

| Compound | BIRC5 expression [1] | Normalized Enrichment Score (NES), myc targets [2] | Normalized Enrichment Score (NES), interferon regulated genes [3] | CCL4 expression [4] | XAF1 expression [5] | tolerability, body weight [6] | CASP1 expression [7] | other results |
| --- | --- | --- | --- | --- | --- | --- | --- | --- |
| Nc1cccc2c1C(=O)N(C1CCC(=O)NC1=O)C2=O (stereo not shown) [pomalidomide, reference compound] | relatively small change | −1.97 | 2.87 | small induction | small induction | very well tolerated with no weight loss and no evidence of overt toxicity | relatively small change | number of genes with fold expression changes greater than 2 relative to vehicle: Down ([8]; 24 h): 531; number of genes with fold expression changes greater than 2 relative to vehicle: Total ([8]; 24 h): 979; number of genes with fold expression changes greater than 2 relative to vehicle: Up ([8]; 24 h): 448; number of genes with fold expression changes greater than 2 relative to vehicle: Down ([8]; 48 h): 865; number of genes with fold expression changes greater than 2 relative to vehicle: Total ([8]; 48 h): 1905; number of genes with fold expression changes greater than 2 relative to vehicle: Up ([8]; 48 h): 1040 |
| O=C(CCCCCCNC(=O)c1cnc(N(c2ccccc2)c2ccccc2Cl)nc1)NO [Compound B, 2-((2-chlorophenyl)(phenyl)amino)-N-(7-(hydroxyamino)-7-oxoheptyl)pyrimidine-5-carboxamide] |  |  |  |  |  | very well tolerated with no weight loss and no evidence of overt toxicity |  |  |
| O=C(NO)c1cnc(NC2(c3cccc(F)c3)CCCCC2)nc1 [Compound C, 2-((1-(3-fluorophenyl)cyclohexyl)amino)-N-hydroxypyrimidine-5-carboxamide] |  |  |  |  |  |  |  | selective for HDAC6 over class I HDACs [9]: more than 300 fold |
| O=C(CCCCCCNC(=O)c1cnc(N(c2ccccc2)c2ccccc2)nc1)NO [Compound A, 2-(diphenylamino)-N-(7-(hydroxyamino)-7-oxoheptyl)pyrimidine-5-carboxamide] | consistent dose-dependent effect | −2.23 | 2.72 | consistent dose-dependent induction | consistent dose-dependent induction |  | consistent dose-dependent effect | apoptosis [10]: small increase in apoptosis; safety and tolerability profile [11]: improved safety and tolerability profile; synergy with bortezomib [12]: synergizes in vitro and in vivo with bortezomib; cell cycle distribution [13]: small reduction of cells undergoing division in S phase; cell cycle distribution [14]: small reduction of cells undergoing division in S phase; inhibition of HDAC6: acetylation of α-tubulin [15]: hyperacetylation of α-tubulin; apoptosis [16]: small increase in apoptosis |
